Data taken from patent US8217029B2, “Oxazolidinone antibiotics” (Actelion Pharmaceuticals Ltd, priority 2007, dated 2012).
In brackets after ≈: the same amount, converted by molar mass.

Each compound was assayed on S aureus A798 (assay: Minimal inhibitory concentration (MIC), microdilution method in cation-adjusted Mueller-Hinton Broth following NCCLS guidelines). Details: pH of test medium 7.2-7.3.
Assay type: cell-based
Procedure, shortened: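 MICs (mg/l) came from NCCLS-guided microdilution, using cation-adjusted Mueller-Hinton medium adjusted to pH 7.2-7.3.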

SMILES | MIC [µg/mL]
CCOC(=O)[C@@H]1CN(c2ccnc3ccc(OC)nc23)C[C@H]1NC[C@H]1CN(c2ccc3c(c2)NC(=O)CS3)C(=O)O1 (relative stereo) [Example 73, (3R*,4S*)-1-(6-Methoxy-[1,5]naphthyridin-4-yl)-4-{[(S)-2-oxo-3-(3-oxo-3,4-dihydro-2H-benzo[1,4]thiazin-6-yl)-oxazolidin-5-ylmethyl]amino}-pyrrolidine-3-carboxylic acid ethyl ester] | ≤ 0.031
COc1ccc2nccc(C3(O)CCN(C[C@@H]4CN(c5ccc6c(c5)NC(=O)CS6)C(=O)O4)CC3)c2c1 [Example 125, 6-{(R)-5-[4-Hydroxy-4-(6-methoxy-quinolin-4-yl)-piperidin-1-ylmethyl]-2-oxo-oxazolidin-3-yl}-4H-benzo[1,4]thiazin-3-one] | ≤ 0.031
COc1ccc2ncc(F)c(N3CC(NC[C@@H]4CN(c5ccc6c(c5)NC(=O)CS6)C(=O)O4)C3)c2n1 [Example 48, 6-((R)-5-{[1-(3-Fluoro-6-methoxy-[1,5]naphthyridin-4-yl)-azetidin-3-ylamino]-methyl}-2-oxo-oxazolidin-3-yl)-4H-benzo[1,4]thiazin-3-one] | ≤ 0.031
COc1ccc2nccc(N3CCN(C[C@@H]4CN(c5ccc(Br)c(C)c5)C(=O)O4)CC3)c2n1 [Example 31, (R)-3-(4-Bromo-3-methyl-phenyl)-5-[4-(6-methoxy-[1,5]naphthyridin-4-yl)-piperazin-1-ylmethyl]-oxazolidin-2-one] | ≤ 0.031
COc1ccc2nccc(N3CC[C@@H](NC(=O)[C@@H]4CN(c5ccc6c(c5)OCCO6)C(=O)O4)C3)c2n1 [Example 61, (S)-3-(2,3-Dihydro-benzo[1,4]dioxin-6-yl)-2-oxo-oxazolidine-5-carboxylic acid [(R)-1-(6-methoxy-[1,5]naphthyridin-4-yl)-pyrrolidin-3-yl]-amide] | ≤ 0.031
COc1ccc2nccc(N3C[C@H](NC[C@@H]4CN(c5ccc6c(c5)NC(=O)CS6)C(=O)O4)C[C@H]3CO)c2n1 [Example 79, 6-((R)-5-{[(3R,5S)-5-Hydroxymethyl-1-(6-methoxy-[1,5]naphthyridin-4-yl)-pyrrolidin-3-ylamino]-methyl}-2-oxo-oxazolidin-3-yl)-4H-benzo[1,4]thiazin-3-one] | 0.25 (≈ 0.466 µM)
COc1ccc2nccc(N3CC(NC[C@@H]4CN(c5ccc6c(c5)NC(=O)CO6)C(=O)O4)C3)c2n1 [Example 52, 6-((R)-5-{[1-(6-Methoxy-[1,5]naphthyridin-4-yl)-azetidin-3-ylamino]-methyl}-2-oxo-oxazolidin-3-yl)-4H-benzo[1,4]oxazin-3-one] | ≤ 0.031
COc1ccc2ncnc(N3CC(NC[C@@H]4CN(c5ccc6c(c5)NC(=O)CO6)C(=O)O4)C3)c2c1 [Example 54, 6-((R)-5-{[1-(6-Methoxy-quinazolin-4-yl)-azetidin-3-ylamino]-methyl}-2-oxo-oxazolidin-3-yl)-4H-benzo[1,4]oxazin-3-one] | ≤ 0.031
COc1ccc2nccc(N3CC[C@@H](NC(=O)[C@@H]4CN(c5ccc(C)c(F)c5)C(=O)O4)C3)c2n1 [Example 62, (S)-3-(3-Fluoro-4-methyl-phenyl)-2-oxo-oxazolidine-5-carboxylic acid [(R)-1-(6-methoxy-[1,5]naphthyridin-4-yl)-pyrrolidin-3-yl]-amide] | ≤ 0.031

Other lines, results leading:

MIC [µg/mL] | SMILES
≤ 0.031 | CCCc1ccc(N2C[C@@H](CN(C)C3CN(c4ccnc5ccc(OC)nc45)C3)OC2=O)cc1 [Example 139, (R)-5-({[1-(6-Methoxy-[1,5]naphthyridin-4-yl)-azetidin-3-yl]-methyl-amino}-methyl)-3-(4-propyl-phenyl)-oxazolidin-2-one]
≤ 0.031 | COc1ccc2nc(C)cc(N3CC(NC[C@@H]4CN(c5ccc6c(c5)NC(=O)CS6)C(=O)O4)C3)c2c1 [Example 131, 6-((R)-5-{[1-(6-Methoxy-2-methyl-quinolin-4-yl)-azetidin-3-ylamino]-methyl}-2-oxo-oxazolidin-3-yl)-4H-benzo[1,4]thiazin-3-one]
≤ 0.031 | COc1ccc2nccc(N3C[C@H]4CCN(C[C@@H]5CN(c6ccc7c(c6)NC(=O)CS7)C(=O)O5)[C@H]4C3)c2n1 (mixture of isomers) [Example 93, 6-{(R)-5-{[(3aR*,6aR*)-5-(6-Methoxy-[1,5]naphthyridin-4-yl)-hexahydro-pyrrolo[3,4-b]pyrrol-1-yl]-methyl}-2-oxo-oxazolidin-3-yl}-4H-benzo[1,4]thiazin-3-one]
≤ 0.031 | COc1ccc2nccc(N3CCC(CNC[C@@H]4CN(c5ccc6c(c5)NC(=O)CS6)C(=O)O4)C3)c2n1 (mixture of isomers) [Example 80, 6-[(R)-5-({[(RS)-1-(6-Methoxy-[1,5]naphthyridin-4-yl)-pyrrolidin-3-ylmethyl]-amino}-methyl)-2-oxo-oxazolidin-3-yl]-4H-benzo[1,4]thiazin-3-one]
0.063 (≈ 0.121 µM) | COc1ccc2nccc(N3C[C@@H]4C[C@H]3CN4C[C@@H]3CN(c4ccc5c(c4)NC(=O)CS5)C(=O)O3)c2n1 [Example 152, 6-{(R)-5-[(1S,4S)-5-(6-Methoxy-[1,5]naphthyridin-4-yl)-2,5-diaza-bicyclo[2.2.1]hept-2-ylmethyl]-2-oxo-oxazolidin-3-yl}-4H-benzo[1,4]thiazin-3-one]
0.5 (≈ 1.05 µM) | CCOc1ccc(N2C[C@@H](CNC3CCN(c4ccnc5ccc(OC)nc45)CC3)OC2=O)cc1 [Example 184, (R)-3-(4-Ethoxy-phenyl)-5-{[1-(6-methoxy-[1,5]naphthyridin-4-yl)-piperidin-4-ylamino]-methyl}-oxazolidin-2-one]
